The source of these data is US5504191A, “Human cancer inhibitory pentapeptide methyl esters” (priority 1994, dated 1996).

Bounds are passed on as bounds.

Test [1] deals with LOX Human Melanoma Xenograph. As to the kind of experiment: Dolastatin 10 in vivo, LOX human melanoma xenograph. To be noted: nude mouse. An excerpt: (§1) The synthesis of potentially useful peptides presents one of the most essential and promising approaches to new types of anticancer and immunosuppressant drugs. The Dolastatins, an unprecedented series of linear and cyclic antineoplastic and/or cytostatic peptides isolated from Indian Ocean sea hare Dolabella auricularia represent excellent leads for synthetic modification. The very productive sea hare Dolabella auricularia has produced a number of structurally distinct peptides with excellent antineoplastic activity. Presently Dolastatin 10, a linear pentapeptide, represents the most important member and is a potentially useful antineoplastic agent. […] Recently the total synthesis and absolute configuration of this structurally unique and biologically active peptide was discovered.

In test [2] the test system is OVCAR-3 Human Ovary Xenograph. Put plainly: Dolastatin 10 in vivo, OVCAR-3 human ovary xenograph. The following applies: OVCAR-3 xenograph, nude mouse, 40 μg/kg.
Description: as §1

In a further test the test system is Human Mammary Xenograph. Put plainly: Dolastatin 10 in vivo, human mammary xenograph. To be noted: nude mouse, 26 μg/kg.
Description: as §1

The subject of the next test is OVCAR-3. Put plainly: Human cancer cell line growth inhibition, Ovarian OVCAR-3. The test is classed as cell-based. The following applies: Ovarian OVCAR-3, 48 hrs. An excerpt:
(§2) Current research in the control of cancer in the United States is coordinated by the National Cancer Institute (NCI). To determine whether a substance has anti-cancer properties, the NCI has established a systematic protocol. […] The protocol, and the established statistical means for analyzing the results obtained by the standardized testing are fully described in the literature. See: Boyd, Dr. Michael R., Principles & Practice of Oncology, PPO Updates, Volume 3, Number 10, October 1989, for an in depth description of the testing protocol; and Paull K. D., "Display and Analysis of Patterns of Differential Activity of Drugs Against Human Tumor Cell Lines; Development of Mean Graph and COMPARE Algorithm" Journal of the National Cancer Institute Reports, Vol. 81, No. 14, Page 1088, Jul. 14, 1989 for a description of the methods of statistical analysis employed to evaluate the test results. Both of these references are incorporated herein by this reference thereto.
(§3) ED50 (P388) and GI50 (HTCL) identify the drug dose which reduces the percent tumor/cell growth to 50%. There is no mathematical difference between ED50 and GI50, both of which are calculated using the same formula. The only difference is historical usage.
(§4) TGI, means "Total Growth Inhibition" and identifies the drug dose needed to yield zero percent growth, i.e. there are just as many cells at the end of the experiment as were present at the beginning. Whether just as many cells were killed as were produced (steady state), or no growth occurred (total inhibition) cannot be distinguished.
(§5) LC50, means "Lethal Concentration 50%", and identifies the drug concentration which reduces to one-half of the cells originally present at the beginning of the experiment.
(§6) Each drug is tested at five (5) doses: 100 - 10 - 1 - 0.1 - 0.01 - μg/ml. Percent Growths are calculated for each dose. The two (or three) doses with growth values above, below, (or near to) 50% growth are used to calculate the ED50 /GI50 values using a linear regression computation. If no dose yields a growth value under 50%, the results are expressed as: ED50 >(highest dose). If no dose yields growth higher than 50% growth, then ED50 <(lowest dose). Similar calculations are performed for the TGI at 0% growth, and at -50% growth for the LC50.
(§7) At the start of each experiment, cells from the in vitro cell cultures are inoculated into the appropriate tubes or microtiter plates. One set of control tubes/plates is immediately counted to determine the number of cells at the start of the experiment. This is the "baseline count" or "Tzero reading". At the end of the experiment (48 hrs later), a second set of control tubes/plates is analyzed to determine the "Control Growth" value. The growth (or death) of cells relative to the initial quantity of cells is used to define the "Percent of Growth."

A further test has as its system NCI-H460. Put plainly: Human cancer cell line growth inhibition, Lung-NSC NCI-H460. The test is classed as cell-based. The following applies: Lung-NSC NCI-H460, 48 hrs.
Description: as §2, §3, §4, §5, §6, §7

Another test deals with KM20L2. Put plainly: Human cancer cell line growth inhibition, Colon KM20L2. The test is classed as cell-based. To be noted: Colon KM20L2, 48 hrs.
Description: as §2, §3, §4, §5, §6, §7

A further test concerns PS-388 Mouse Leukemia. Put plainly: PS-388 mouse leukemia cell growth inhibition (ED50). To be noted: Mouse Leukemia PS-388. Format: cell-based. How it is done:
as §3, §6, §7

A further test deals with SK-MEL-5. Put plainly: Human cancer cell line growth inhibition, Melanoma SK-MEL-5. The test is classed as cell-based. To be noted: Melanoma SK-MEL-5, 48 hrs.
Description: as §2, §3, §4, §5, §6, §7

For another test, the system named is A498. As to the kind of experiment: Human cancer cell line growth inhibition, Renal A498. Format: cell-based. To be noted: Renal A498, 48 hrs.
Description: as §2, §3, §4, §5, §6, §7

The test system of a further test is SF-295. Put plainly: Human cancer cell line growth inhibition, CNS SF-295. The test is classed as cell-based. The following applies: CNS SF-295, 48 hrs.
Description: as §2, §3, §4, §5, §6, §7

As for Dolastatin 10, the T/C in test [1] (3.25 μg/kg) is 170; in test [1] (52 μg/kg), “toxic”; in [2] it was 300; with Human Mammary Xenograph, “Toxic”. For the same substance, the cures in test [1] (3.25 μg/kg) is listed as 17%; in [1] (6.5 μg/kg), 33%; in [1] (13 μg/kg), 50%; in test [1] (26 μg/kg), 67%.
By TGI is commonly meant the concentration giving total growth inhibition. The low end stands for more potent growth arrest, the high end for less potent growth arrest. As to Dov--Val--Dil--Dap--His--OMe [10b], the GI-50 with OVCAR-3 is 0.00071 µg/mL; in the test on NCI-H460, over 0.01 µg/mL; in the test with KM20L2 it was 0.00099 µg/mL; in the test with SK-MEL-5, 0.0008 µg/mL; with A498, over 0.01 µg/mL; in the test with SF-295, over 0.01 µg/mL. Also, the LC-50 in the test on OVCAR-3, in the test on NCI-H460, in the test with KM20L2, with SK-MEL-5, in the test on A498 and in the test with SF-295 was over 0.01 µg/mL in each case. Besides, the concentration for total growth inhibition (TGI) in the test on OVCAR-3, with NCI-H460, with KM20L2, in the test on SK-MEL-5, in the test on A498 and in the test on SF-295 was over 0.01 µg/mL in each case. In addition, the ED-50 with PS-388 Mouse Leukemia was over 0.01 µg/mL.
For “Dov--Val--Dil--Dap--N^ε --Z--Lys--OMe [10a]”, the GI-50 in the test with OVCAR-3 is 0.0069 µg/mL; in the test on NCI-H460 it was over 0.01 µg/mL; with KM20L2, over 0.01 µg/mL; with SK-MEL-5 it was 0.003 µg/mL; in the test with A498, over 0.01 µg/mL; with SF-295 it was over 0.01 µg/mL. Further, the LC-50 in the test on OVCAR-3, with NCI-H460, with KM20L2, in the test with SK-MEL-5, with A498 and in the test with SF-295 was over 0.01 µg/mL in each case. In addition, the TGI in the test on OVCAR-3, in the test on NCI-H460, in the test on KM20L2, with SK-MEL-5, in the test with A498 and in the test with SF-295 was over 0.01 µg/mL in each case. The ED-50 with PS-388 Mouse Leukemia is over 0.01 µg/mL.
Take “N^α,N^ε --di--Z--Lys--Val--Dil--Dap--His--OMe [11a]”: the GI-50 was 0.12 µg/mL in the test with OVCAR-3; 0.27 µg/mL in the test on NCI-H460; 0.29 µg/mL with KM20L2; 0.08 µg/mL with SK-MEL-5; over 1 µg/mL with A498; 0.67 µg/mL with SF-295. In addition, the LC-50 in the test with OVCAR-3, in the test on NCI-H460, in the test on KM20L2, in the test with SK-MEL-5, in the test with A498 and in the test on SF-295 was over 1 µg/mL in each case. For the same substance, the TGI was 0.67 µg/mL in the test with OVCAR-3; over 1 µg/mL with NCI-H460; over 1 µg/mL in the test with KM20L2; over 1 µg/mL in the test on SK-MEL-5; over 1 µg/mL with A498; over 1 µg/mL with SF-295. Moreover, in the test with PS-388 Mouse Leukemia, the ED-50 was over 1 µg/mL.
“N^γ,N^γ,N^α --tri--Z--Arg--Val--Dil--Dap--Met--OMe [11c]”: the GI-50 with OVCAR-3 was found to be 0.074 µg/mL; with NCI-H460, 0.25 µg/mL; in the test with KM20L2, 0.28 µg/mL; with SK-MEL-5, 0.38 µg/mL; with A498, 0.6 µg/mL; with SF-295, 0.13 µg/mL. Moreover, the LC-50 in the test with OVCAR-3, in the test on NCI-H460, with KM20L2, in the test with SK-MEL-5, in the test on A498 and in the test on SF-295 was over 1 µg/mL each time. Besides, the TGI is 0.74 µg/mL with OVCAR-3; 0.62 µg/mL in the test with NCI-H460; over 1 µg/mL in the test on KM20L2; over 1 µg/mL in the test with SK-MEL-5; over 1 µg/mL in the test with A498; over 1 µg/mL with SF-295. In the test on PS-388 Mouse Leukemia, the ED-50 came out at 0.329 µg/mL.
As to “N^γ,N^γ,N^α --tri--Z--Arg--Val--Dil--Dap--N^ε --Z--Lys--OMe [11b]”, the GI-50 with OVCAR-3, in the test on NCI-H460, in the test on KM20L2, with SK-MEL-5, in the test with A498 and with SF-295 was over 1 µg/mL each time. Besides, the LC-50 in the test on OVCAR-3, in the test on NCI-H460, in the test with KM20L2, in the test with SK-MEL-5, in the test with A498 and with SF-295 was over 1 µg/mL each time. For the same substance, the TGI in the test on OVCAR-3, in the test with NCI-H460, in the test on KM20L2, in the test with SK-MEL-5, with A498 and in the test with SF-295 was over 1 µg/mL in each case. Moreover, the ED-50 with PS-388 Mouse Leukemia worked out at 0.513 µg/mL.
